Drawing on patent US11530206B2, “Phenylaminopyrimidine amide autophagy inhibitors and methods of use thereof” (Deciphera Pharmaceuticals, LLC, priority 2019, dated 2022), this text covers IC50 for 21 compounds.

One test addresses T1, ULK1 kinase (Homo sapiens, UniProt O75385, E37A/K38A).
T1 construct: purchased Beryllium
T1 sequence (O75385 1-283 E37A/K38A): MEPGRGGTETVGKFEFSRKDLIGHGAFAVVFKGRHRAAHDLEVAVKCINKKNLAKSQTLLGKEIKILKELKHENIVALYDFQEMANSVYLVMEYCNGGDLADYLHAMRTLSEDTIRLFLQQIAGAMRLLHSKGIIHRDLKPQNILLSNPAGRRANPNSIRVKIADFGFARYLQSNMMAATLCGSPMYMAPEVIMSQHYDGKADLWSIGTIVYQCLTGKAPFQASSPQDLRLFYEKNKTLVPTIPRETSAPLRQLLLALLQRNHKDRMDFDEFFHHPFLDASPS
As to the kind of experiment: Biochemical assay for ULK1.3 (coupled pyruvate kinase/lactate dehydrogenase assay, peptide substrate). Particulars: 0.1 nM ULK1 (residues 1-283), 1 mM ATP. As to the method: Biochemical Assay for ULK1.3 (SEQ. ID NO: 2)
Inhibition of ULK1 was measured by adding serial diluted test compound (final assay concentration of 1% DMSO). A decrease in absorption at 340 nm was monitored continuously for 6 hours at 30° C. on a multi-mode microplate reader (BioTek). The reaction rate was calculated using the 2-3 h time frame. The reaction rate at each concentration of compound was converted to percent inhibition using controls (i.e. reaction with no test compound and reaction with a known inhibitor) and IC50 values were calculated using software routines in Prism (GraphPad software).

The target in another test is T2, LRRK2 kinase (Homo sapiens, UniProt Q5S007).
T2 construct: purchased Thermo Fisher
T2 sequence (Q5S007 with tags, fused parts or gaps): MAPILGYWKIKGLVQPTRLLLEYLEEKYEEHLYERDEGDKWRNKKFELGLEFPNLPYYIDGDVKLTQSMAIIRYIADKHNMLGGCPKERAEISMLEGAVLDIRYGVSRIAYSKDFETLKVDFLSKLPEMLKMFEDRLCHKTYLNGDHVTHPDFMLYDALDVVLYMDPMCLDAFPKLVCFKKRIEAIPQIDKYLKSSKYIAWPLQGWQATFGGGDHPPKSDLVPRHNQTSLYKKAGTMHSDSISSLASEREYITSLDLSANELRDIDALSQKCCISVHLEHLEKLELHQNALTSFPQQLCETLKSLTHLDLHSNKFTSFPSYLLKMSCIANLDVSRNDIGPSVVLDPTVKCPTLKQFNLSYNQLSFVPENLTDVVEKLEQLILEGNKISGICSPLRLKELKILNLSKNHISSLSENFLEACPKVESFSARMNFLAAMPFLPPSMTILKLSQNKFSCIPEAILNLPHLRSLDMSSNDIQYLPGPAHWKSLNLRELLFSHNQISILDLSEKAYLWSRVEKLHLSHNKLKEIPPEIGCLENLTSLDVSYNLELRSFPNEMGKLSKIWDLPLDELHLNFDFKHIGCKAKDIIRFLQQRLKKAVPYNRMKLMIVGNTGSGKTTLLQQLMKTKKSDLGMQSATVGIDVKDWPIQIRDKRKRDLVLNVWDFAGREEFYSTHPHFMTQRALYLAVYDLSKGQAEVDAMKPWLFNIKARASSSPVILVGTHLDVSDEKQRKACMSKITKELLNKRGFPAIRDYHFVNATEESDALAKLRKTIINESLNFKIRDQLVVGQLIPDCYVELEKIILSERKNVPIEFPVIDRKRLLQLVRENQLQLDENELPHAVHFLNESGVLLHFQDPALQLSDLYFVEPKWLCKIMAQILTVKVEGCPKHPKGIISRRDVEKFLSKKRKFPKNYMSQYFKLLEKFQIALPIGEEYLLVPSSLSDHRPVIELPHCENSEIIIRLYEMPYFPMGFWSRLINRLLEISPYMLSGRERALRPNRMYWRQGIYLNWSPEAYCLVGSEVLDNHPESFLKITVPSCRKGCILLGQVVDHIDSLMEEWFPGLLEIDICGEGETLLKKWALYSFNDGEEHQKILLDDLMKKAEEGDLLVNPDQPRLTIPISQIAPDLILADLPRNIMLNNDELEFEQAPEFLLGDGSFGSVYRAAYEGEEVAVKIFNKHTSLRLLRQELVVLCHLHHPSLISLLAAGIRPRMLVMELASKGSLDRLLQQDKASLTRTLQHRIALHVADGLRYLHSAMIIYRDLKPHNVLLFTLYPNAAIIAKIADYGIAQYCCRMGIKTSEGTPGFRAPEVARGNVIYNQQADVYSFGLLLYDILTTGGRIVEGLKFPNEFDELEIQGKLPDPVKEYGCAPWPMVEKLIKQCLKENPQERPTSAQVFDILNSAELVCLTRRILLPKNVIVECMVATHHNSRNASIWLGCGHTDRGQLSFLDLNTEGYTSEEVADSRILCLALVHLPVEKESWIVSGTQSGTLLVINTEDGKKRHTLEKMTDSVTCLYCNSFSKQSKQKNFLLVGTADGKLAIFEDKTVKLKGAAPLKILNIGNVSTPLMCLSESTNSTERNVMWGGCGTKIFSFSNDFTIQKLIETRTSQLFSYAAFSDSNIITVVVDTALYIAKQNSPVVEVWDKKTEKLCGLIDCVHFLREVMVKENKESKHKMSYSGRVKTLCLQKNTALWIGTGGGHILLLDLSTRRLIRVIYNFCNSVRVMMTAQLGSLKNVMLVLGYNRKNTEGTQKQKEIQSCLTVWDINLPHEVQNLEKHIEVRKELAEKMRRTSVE
As to the kind of experiment: Biochemical assay for LRRK2 (coupled pyruvate kinase/lactate dehydrogenase assay). Particulars: 26.4 nM LRRK2 (residues 970-2528), peptide substrate, 1 mM ATP. Here is the method:
Example 138. Biochemical Assay for LRRK2 (SEQ. ID NO: 4)
Activity of LRRK2 kinase was determined spectroscopically using a coupled pyruvate kinase/lactate dehydrogenase assay that continuously monitors the ATP hydrolysis-dependent oxidation of NADH (e.g., Schindler et al. Science (2000) 289: 1938-1942). Assays were conducted in 384-well plates (100 μL final volume) using 26.4 nM LRRK2 (Thermo Fisher), 0.1 mM peptide substrate ([…] (SEQ ID NO: 6)), 1.5 units pyruvate kinase, 2.1 units lactate dehydrogenase, 1 mM phosphoenol pyruvate, 0.28 mM NADH and 1 mM ATP in assay buffer (100 mM Tris, pH 7.5, 15 mM MgCl2, 0.5 mM DTT, 0.004% (w/v) BSA, and 0.004% Triton X-100). Inhibition of LRRK2 was measured by adding serial diluted test compound (final assay concentration of 1% DMSO). A decrease in absorption at 340 nm was monitored continuously for 6 hours at 30° C. on a multi-mode microplate reader (BioTek). The reaction rate was calculated using the 2-3 h time frame. The reaction rate at each concentration of compound was converted to percent inhibition using controls (i.e. reaction with no test compound and reaction with a known inhibitor) and IC50 values were calculated using software routines in Prism (GraphPad software).

Test [1] has as its system ULK kinase. As to the kind of experiment: pATG13 levels of mutant KRas MiaPaCa-2 cells after treatment with ULK inhibitors in combination with trametinib (ELISA). The test is classed as cell-based, human. Particulars: MiaPaCa-2 pancreatic cancer cells, 250 nM trametinib, overnight, pS318-ATG13. As to the method:
(§1) MiaPaCa-2 human pancreatic cancer cells (10000 cells/well) were added to a 384-well tissue-culture treated plate in 50 μL of pre-warmed DMEM medium supplemented with 10% characterized fetal bovine serum (Invitrogen, Carlsbad, Calif.), 100 units/mL penicillin G, 100 µg/mL streptomycin, and 2.5% Horse Serum and allowed to grow overnight at 37° C., 5% CO2, and 95% humidity. The following day, 10 μL of media containing trametinib or DMSO as a control was added to wells. […] A dose response of a test compound (0.6 μL per well) was added. DMSO (0.6 μL) was added to control wells. The plate was briefly shaken to mix wells and then incubated at 37° C. overnight. The next day, the media was aspirated and cells were washed with Dulbecco's Phosphate Buffered Saline (Gibco). Cells were lysed using MPER lysis buffer (Pierce, Rockford, Ill.) containing Halt Phosphatase and Protease Inhibitors (Pierce, Rockford, Ill.) and Phosphatase inhibitor cocktail 2 (Sigma, St. Louis, Mo.) at 4° C. for 10 minutes with shaking.
(§2) Plate wells were washed with ELISA wash buffer. Cell lysate was added to wells and incubated at room temperature for 2 hours. Plate wells were washed with ELISA wash buffer. […] Plate wells were washed with ELISA wash buffer. […] Plate wells were washed with ELISA wash buffer. […] The reaction was stopped with 2N Sulfuric Acid. The plate was analyzed at on a plate reader measuring absorbance at 450 nm and 540 nm (background). Signal was calculated by first subtracting the background absorbance at 540 nm from the absorbance at 450 nm for each well. Next, the background corrected absorbance at 450 nm from blank wells was subtracted from test wells. Data was compared to control wells to determine % ATG13 phosphorylation. GraphPad Prism was used to calculate IC50 values.
On the technique in general: ELISA stands for enzyme-linked immunosorbent assay.

Test [2] deals with ULK kinase. As to the kind of experiment: pATG13 levels of mutant KRas A549 cells after treatment with ULK inhibitors in combination with trametinib (ELISA). The test is classed as cell-based, human. Particulars: A549 (KRAS mutant) lung cancer cells, 250 nM trametinib, overnight, pS318-ATG13. As to the method: Cellular Inhibition of ULK Kinase Substrate ATG13 Protein pATG13 Levels of Mutant KRas A549 Cells after Treatment with ULK Inhibitors in Combination with Trametinib
as §1, with “A549 (KRAS mutant)” for “MiaPaCa-2”, “lung” for “pancreatic”, “(6,000” for “(10000”, “G, and” for “G,”, “μg/mL streptomycin” for “µg/mL streptomycin, and 2.5% Horse Serum”
as §2

On to `CN1CCN(c2cc(C3CC3)c(Nc3ncc(C(F)(F)F)c(NCCCN4CCCCC4=O)n3)cc2F)CC1` [Example 35], for which the IC50 on ULK1 kinase fell in the range of 25 to 100 nM; on LRRK2 kinase, 1 to 100 nM; in the test on ULK kinase [1], 100 to 300 nM; in the test on ULK kinase [2] it was 100 to 300 nM.

Take `CCc1cc(N2CC3CCC(C2)N3C)ccc1Nc1ncc(C(F)(F)F)c(NCCCN2CCCCC2=O)n1` [Example 68]: the IC50 is 1 to 25 nM against ULK1 kinase, 100 to 300 nM on LRRK2 kinase, 10 to 100 nM in the test on ULK kinase [1] and 10 to 100 nM in the test on ULK kinase [2].

Turning to `CCc1cc(N2CCCN(C)CC2)ccc1Nc1ncc(C(F)(F)F)c(NCCCN2CCOCCC2=O)n1` [Example 79], the IC50 against ULK1 kinase fell in the range of 1 to 25 nM; at LRRK2 kinase, 100 to 300 nM; in the test with ULK kinase [1], 10 to 100 nM; in the test with ULK kinase [2] it was 100 to 300 nM.

Regarding `CC(C)c1cc(N2CCN(C)CC2)ccc1Nc1ncc(Br)c(NCCCN2CCOCCC2=O)n1` [Example 87], the IC50 on ULK1 kinase was in the range of 25 to 100 nM; against LRRK2 kinase it was 300 to 600 nM; in the test on ULK kinase [1], 300 to 600 nM; in the test on ULK kinase [2], 300 to 600 nM.

On to `CCc1cc(N2CCN(C)CC2)ccc1Nc1cc(NCCCN2CCOCCC2=O)c(C(F)(F)F)cn1` [Example 92], for which the IC50 against ULK1 kinase is 1 to 25 nM; against LRRK2 kinase, greater than 600 nM; with ULK kinase [1], 100 to 300 nM; with ULK kinase [2], 300 to 600 nM.

With `O=C1CCOCCN1CCCNc1nc(Nc2ccc(N3CCN4CCC[C@@H]4C3)cc2C2CC2)ncc1C(F)(F)F` [Example 107], the IC50 is 1 to 25 nM against ULK1 kinase, 100 to 300 nM against LRRK2 kinase, 10 to 100 nM in the test with ULK kinase [1] and 10 to 100 nM in the test with ULK kinase [2].

Take `CN1CCN(c2ccc(Nc3ncc(C(F)(F)F)c(NCCCN4CCOCCC4=O)n3)c(C3CCCC3)c2)CC1` [Example 112]: the IC50 was 1 to 25 nM against ULK1 kinase, 100 to 300 nM against LRRK2 kinase, 100 to 300 nM with ULK kinase [1] and 100 to 300 nM with ULK kinase [2].

As for `CN1C[C@@H]2C[C@H]1CN2c1ccc(Nc2ncc(C(F)(F)F)c(NCCCN3CCOCCC3=O)n2)c(C2CC2)c1` [Example 116], the IC50 on ULK1 kinase was in the range of 25 to 100 nM; against LRRK2 kinase it was 1 to 100 nM; in the test with ULK kinase [1], 10 to 100 nM; in the test on ULK kinase [2], 100 to 300 nM.

As to `CN1C[C@@H]2C[C@H]1CN2c1ccc(Nc2ncc(C(F)(F)F)c(NCCCN3CCCOC3=O)n2)c(C2CC2)c1` [Example 117], the IC50 fell in the range of 25 to 100 nM on ULK1 kinase, 1 to 100 nM against LRRK2 kinase, 10 to 100 nM in the test on ULK kinase [1] and 100 to 300 nM with ULK kinase [2].

Consider `CCc1cc(N2C[C@@H]3C[C@H]2CN3C)ccc1Nc1ncc(C(F)(F)F)c(NCCCN2CCOCCC2=O)n1` [Example 119], for which the IC50 lay in the range of 1 to 25 nM on ULK1 kinase, 100 to 300 nM against LRRK2 kinase, 10 to 100 nM in the test on ULK kinase [1] and 100 to 300 nM with ULK kinase [2].

As for `CCc1cc(N2C[C@@H]3C[C@H]2CN3C)ccc1Nc1ncc(C(F)(F)F)c(NCCCN2CCCOC2=O)n1` [Example 120], the IC50 lay in the range of 1 to 25 nM on ULK1 kinase, 100 to 300 nM at LRRK2 kinase, 100 to 300 nM in the test with ULK kinase [1] and 100 to 300 nM with ULK kinase [2].

In the case of `CCc1cc(N2CCN3CCC[C@H]3C2)ccc1Nc1ncc(C(F)(F)F)c(NCCCN2CCOCCC2=O)n1` [Example 122], the IC50 against ULK1 kinase is 1 to 25 nM; on LRRK2 kinase it was 1 to 100 nM; in the test on ULK kinase [1] it was 100 to 300 nM; in the test on ULK kinase [2], 300 to 600 nM.

In the case of `CCc1cc(N2C[C@H]3C[C@@H]2CN3C)ccc1Nc1ncc(C(F)(F)F)c(NCCCN2CCOCCC2=O)n1` [Example 124], the IC50 is 1 to 25 nM against ULK1 kinase, 100 to 300 nM against LRRK2 kinase, 10 to 100 nM in the test with ULK kinase [1] and 10 to 100 nM in the test on ULK kinase [2].

For `CN1C[C@H]2C[C@@H]1CN2c1ccc(Nc2ncc(C(F)(F)F)c(NCCCN3CCOCCC3=O)n2)c(C2CC2)c1` [Example 125], the IC50 was in the range of 1 to 25 nM against ULK1 kinase, 1 to 100 nM against LRRK2 kinase, 10 to 100 nM in the test on ULK kinase [1] and 10 to 100 nM in the test on ULK kinase [2].

For the compound `CN(C)C1CN(c2ccc(Nc3ncc(C(F)(F)F)c(NCCCN4CCCCC4=O)n3)c(C3CC3)c2)C1` [Example 126], the IC50 against ULK1 kinase fell in the range of 1 to 25 nM; on LRRK2 kinase, 1 to 100 nM; in the test on ULK kinase [1], 10 to 100 nM; in the test on ULK kinase [2], 100 to 300 nM.

Turning to `COCc1cc(N2CCN(C)CC2)ccc1Nc1ncc(C(F)(F)F)c(NCCCN2CCOCCC2=O)n1` [Example 127], the IC50 on ULK1 kinase was 1 to 25 nM; at LRRK2 kinase, 300 to 600 nM; in the test on ULK kinase [1], 100 to 300 nM; in the test with ULK kinase [2], 100 to 300 nM.

For the compound `CCc1cc(N2CCN(C)CC2)ccc1Nc1ncc(C#N)c(NCCCN2CCOCCC2=O)n1` [Example 129], the IC50 is 25 to 100 nM at ULK1 kinase, greater than 600 nM against LRRK2 kinase, 100 to 300 nM in the test with ULK kinase [1] and 300 to 600 nM in the test on ULK kinase [2].

Take `CN1CCN(c2ccc(Nc3ncc(C(F)(F)F)c(NCCCN4CCOCCC4=O)n3)c(Br)c2)CC1` [Example 131]: the IC50 at ULK1 kinase was 1 to 25 nM; against LRRK2 kinase, 100 to 300 nM; in the test with ULK kinase [1], 300 to 600 nM; in the test with ULK kinase [2] it was 100 to 300 nM.

Take `CN1CCN(c2ccc(Nc3ncc(C(F)(F)F)c(NCCCN4CCOCCC4=O)n3)c(Cl)c2)CC1` [Example 132]: the IC50 at ULK1 kinase is 1 to 25 nM; against LRRK2 kinase it was 1 to 100 nM; in the test with ULK kinase [1], 10 to 100 nM; with ULK kinase [2] it was 100 to 300 nM.

Regarding `COCc1cc(N2CCN(C)CC2)ccc1Nc1ncc(C(F)(F)F)c(NCCCN2CCCOC2=O)n1` [Example 147], the IC50 fell in the range of 1 to 25 nM against ULK1 kinase, 300 to 600 nM against LRRK2 kinase, 100 to 300 nM in the test on ULK kinase [1] and 100 to 300 nM with ULK kinase [2].

Turning to `CN1CCN(c2ccc(Nc3ncc(C(F)(F)F)c(NCCCN4CCC(C)(C)OC4=O)n3)c(C3CC3)c2)CC1` [Example 148], the IC50 against ULK1 kinase is 1 to 25 nM; on LRRK2 kinase, 100 to 300 nM; in the test on ULK kinase [1] it was 10 to 100 nM; in the test with ULK kinase [2], 10 to 100 nM.

As a reminder, the IC50 is the concentration needed to halve the response being measured.
